# Test system: Glomerella lagenarium (Colletotrichum lagenarium)
# Assay: Fungicidal activity against Glomerella lagenarium (Colletotrichum lagenarium) liquid culture / cucumber / preventative (anthracnose)
# Format: cell-based
# Details: Colletotrichum orbiculare; 20 ppm in the applied formulation; liquid culture (PDB), growth inhibition measured photometrically after 3 to 4 days; compared to untreated control; read-out: disease control
# Protocol: Mycelia fragments or conidia suspensions of a fungus prepared either freshly from liquid cultures of the fungus or from cryogenic storage, are directly mixed into nutrient broth. DMSO solutions of the test compound (max. 10 mg/ml) are diluted with 0.025% Tween20 by a factor of 50 and 10 μl of this solution is pipetted into a microtiter plate (96-well format). The nutrient broth containing the fungal spores/mycelia fragments is then added to give an end concentration of the tested compound. The test plates are incubated in the dark at 24° C. and 96% relative humidity. The inhibition of fungal growth is determined photometrically after 2 to 7 days, depending on the pathosystem, and percent antifungal activity relative to the untreated check is calculated.
# Fungicidal activity against Glomerella lagenarium (Colletotrichum lagenarium) liquid culture/cucumber/Preventative (Anthracnose)
# Conidia of the fungus from cryogenic storage are directly mixed into nutrient broth (PDB—potato dextrose broth). After placing a (DMSO) solution of test compound into a microtiter plate (96-well format), the nutrient broth containing the fungal spores is added.
# The following compounds at 20 ppm in the applied formulation give at least 80% disease control in this test when compared to untreated control under the same conditions, which show extensive disease development.
row,SMILES,inhibition of growth at 20 ppm [%]
1,"COc1ccccc1C(=O)N(Cc1ccc(-c2noc(C(F)(F)F)n2)cc1)OC [Compound 1.7, N,2-dimethoxy-N-[[4-[5-(trifluoromethyl)-1,2,4-oxadiazol-3-yl]phenyl]methyl]-benzamide]",≥ 80
2,"CON(Cc1ccc(-c2noc(C(F)(F)F)n2)cc1)C(=O)c1ccc(Cl)cc1Cl [Compound 1.9, 2,4-dichloro-N-methoxy-N-[[4-[5-(trifluoromethyl)-1,2,4-oxadiazol-3-yl]phenyl]methyl]-benzamide]",≥ 80
3,"CON(Cc1ccc(-c2noc(C(F)(F)F)n2)cc1)C(=O)CCc1ccc(Cl)cc1 [Compound 1.18, 3-(4-chlorophenyl)-N-methoxy-N-[[4-[5-(trifluoromethyl)-1,2,4-oxadiazol-3-yl]phenyl]methyl]-propanamide]",≥ 80
4,"CON(Cc1ccc(-c2noc(C(F)(F)F)n2)cc1)C(=O)c1cc2c(cc1Br)OCO2 [Compound 1.55, 6-bromo-N-methoxy-N-[[4-[5-(trifluoromethyl)-1,2,4-oxadiazol-3-yl]phenyl]methyl]-1,3-benzoxlioxole-5-carboxamide]",≥ 80
5,"CCC1(C(=O)N(Cc2ccc(-c3noc(C(F)(F)F)n3)cc2)OC)C(C)C1(Cl)Cl (stereo not drawn) [Compound 1.61, 2,2-dichloro-1-ethyl-N-methoxy-3-methyl-N-[[4-[5-(trifluoromethyl)-1,2,4-oxadiazol-3-yl]phenyl]methyl]-cyclopropane-carboxamide]",≥ 80
6,"CON(Cc1ccc(-c2noc(C(F)(F)F)n2)cc1)C(=O)Cc1ccc(C(F)(F)F)cc1 [Compound 1.68, N-methoxy-N-[[4-[5-(trifluoromethyl)-1,2,4-oxadiazol-3-yl]phenyl]methyl]-2-[4-(trifluoromethyl)-phenyl]acetamide]",≥ 80
7,"COc1cccc(C2(C(=O)N(Cc3ccc(-c4noc(C(F)(F)F)n4)cc3)OC)CC2)c1 [Compound 1.72, N-methoxy-1-(3-methoxyphenyl)-N-[[4-[5-(trifluoromethyl)-1,2,4-oxadiazol-3-yl]phenyl]methyl]-cyclopropane-carboxamide]",≥ 80
8,"COc1ccc(C2(C(=O)N(Cc3ccc(-c4noc(C(F)(F)F)n4)cc3)OC)CC2)cc1 [Compound 1.74, N-methoxy-1-(4-methoxyphenyl)-N-[[4-[5-(trifluoromethyl)-1,2,4-oxadiazol-3-yl]phenyl]methyl]-cyclopropane-carboxamide]",≥ 80
9,"CCCC(C)(C)C(=O)N(Cc1ccc(-c2noc(C(F)(F)F)n2)cc1)C1CC1 [Compound 1.85, N-cyclopropyl-2,2-dimethyl-N-[[4-[5-(trifluoromethyl)-1,2,4-oxadiazol-3-yl]phenyl]methyl]-pentanamide]",≥ 80
10,"O=C(c1cccc(C(F)(F)F)c1)N(Cc1ccc(-c2noc(C(F)(F)F)n2)cc1)C1CC1 [Compound 1.88, N-cyclopropyl-3-(trifluoromethyl)-N-[[4-[5-(trifluoromethyl)-1,2,4-oxadiazol-3-yl]phenyl]methyl]-benzamide]",≥ 80
11,"O=C(Cc1ccccc1Cl)N(Cc1ccc(-c2noc(C(F)(F)F)n2)cc1)C1CC1 [Compound 1.94, 2-(2-chlorophenyl)-N-cyclopropyl-N-[[4-[5-(trifluoromethyl)-1,2,4-oxadiazol-3-yl]phenyl]methyl]-acetamide]",≥ 80
12,"O=C(N(Cc1ccc(-c2noc(C(F)(F)F)n2)cc1)C1CC1)C1(c2ccccc2)CC1 [Compound 1.96, N-cyclopropyl-1-phenyl-N-[[4-[5-(trifluoromethyl)-1,2,4-oxadiazol-3-yl]phenyl]methyl]-cyclopropane-carboxamide]",≥ 80
13,"O=C(C1CC1c1ccccc1)N(Cc1ccc(-c2noc(C(F)(F)F)n2)cc1)C1CC1 (stereo not drawn) [Compound 1.98, N-cyclopropyl-2-phenyl-N-[[4-[5-(trifluoromethyl)-1,2,4-oxadiazol-3-yl]phenyl]methyl]-cyclopropane-carboxamide]",≥ 80
14,"CC1(C(=O)N(Cc2ccc(-c3noc(C(F)(F)F)n3)cc2)C2CC2)CCCCC1 [Compound 1.108, N-cyclopropyl-1-methyl-N-[[4-[5-(trifluoromethyl)-1,2,4-oxadiazol-3-yl]phenyl]methyl]-cyclohexane-carboxamide]",≥ 80
15,"CC(C)(C)CC(=O)N(Cc1ccc(-c2noc(C(F)(F)F)n2)cc1)C1CC1 [Compound 1.116, N-cyclopropy 1-3,3-dimethyl-N-[[4-[5-(trifluoromethyl)-1,2,4-oxadiazol-3-yl]phenyl]methyl]-butanamide]",≥ 80
16,"CCC(CC(=O)N(Cc1ccc(-c2noc(C(F)(F)F)n2)cc1)C1CC1)C(F)(F)F (stereo not drawn) [Compound 1.148, N-cyclopropyl-3-(trifluoromethyl)-N-[[4-[5-(trifluoromethyl)-1,2,4-oxadiazol-3-yl]phenyl]methyl]-pentanamide]",≥ 80
17,"C#CCN(Cc1ccc(-c2noc(C(F)(F)F)n2)cc1)C(=O)Cc1ccccc1Cl [Compound 1.163, 2-(2-chlorophenyl)-N-prop-2-ynyl-N-[[4-[5-(trifluoromethyl)-1,2,4-oxadiazol-3-yl]phenyl]methyl]-acetamide]",≥ 80
18,"C#CCN(Cc1ccc(-c2noc(C(F)(F)F)n2)cc1)C(=O)C1(C)CC1(Cl)Cl (stereo not drawn) [Compound 1.174, 2,2-dichloro-1-methyl-N-prop-2-ynyl-N-[[4-[5-(trifluoromethyl)-1,2,4-oxadiazol-3-yl]phenyl]methyl]-cyclopropane-carboxamide]",≥ 80
19,"C#CCN(Cc1ccc(-c2noc(C(F)(F)F)n2)cc1)C(=O)Cc1ccccc1OC [Compound 1.179, 2-(2-methoxyphenyl)-N-prop-2-ynyl-N-[[4-[5-(trifluoromethyl)-1,2,4-oxadiazol-3-yl]phenyl]methyl]-acetamide]",≥ 80
20,"O=C(N(Cc1ccc(-c2noc(C(F)(F)F)n2)cc1)CC1CC1)C1(C(F)(F)F)CC1 [Compound 1.203, N-(cyclopropylmethyl)-1-(trifluoromethyl)-N-[[4-[5-(trifluoromethyl)-1,2,4-oxadiazol-3-yl]phenyl]methyl]-cyclopropane-carboxamide]",≥ 80
21,"C=CCCC(=O)N(Cc1ccc(-c2noc(C(F)(F)F)n2)cc1)CC1CC1 [Compound 1.208, N-(cyclopropylmethyl)-N-[[4-[5-(trifluoromethyl)-1,2,4-oxadiazol-3-yl]phenyl]methyl]-pent-4-enamide]",≥ 80
22,"O=C(CC1CC1)N(Cc1ccc(-c2noc(C(F)(F)F)n2)cc1)CC1CC1 [Compound 1.211, 2-cyclopropyl-N-(cyclopropylmethyl)-N-[[4-[5-(trifluoromethyl)-1,2,4-oxadiazol-3-yl]phenyl]methyl]-acetamide]",≥ 80
23,"O=C(CCC(F)(F)F)N(Cc1ccc(-c2noc(C(F)(F)F)n2)cc1)CC1CC1 [Compound 1.213, N-(cyclopropylmethyl)-4,4,4-trifluoro-N-[[4-[5-(trifluoromethyl)-1,2,4-oxadiazol-3-yl]phenyl]methyl]-butanamide]",≥ 80
24,"O=C(Cc1ccccc1)N(Cc1ccc(-c2noc(C(F)(F)F)n2)cc1)CC1CC1 [Compound 1.228, N-(cyclopropylmethyl)-2-phenyl-N-[[4-[5-(trifluoromethyl)-1,2,4-oxadiazol-3-yl]phenyl]methyl]-acetamide]",≥ 80
25,"CC1(C)CC1C(=O)N(Cc1ccc(-c2noc(C(F)(F)F)n2)cc1)CC1CC1 (stereo not drawn) [Compound 1.231, N-(cyclopropylmethyl)-2,2-dimethyl-N-[[4-[5-(trifluoromethyl)-1,2,4-oxadiazol-3-yl]phenyl]methyl]-cyclopropane-carboxamide]",≥ 80
26,"O=C(C1CC1(Cl)Cl)N(Cc1ccc(-c2noc(C(F)(F)F)n2)cc1)CC1CC1 (stereo not drawn) [Compound 1.232, 2.2-dichloro-N-(cyclopropylmethyl)-N-[[4-[5-(trifluoromethyl)-1,2,4-oxadiazol-3-yl]phenyl]methyl]-cyclopropane-carboxamide]",≥ 80
27,"N#Cc1ccc(CC(=O)N(Cc2ccc(-c3noc(C(F)(F)F)n3)cc2)CC2CC2)cc1 [Compound 1.236, 2-(4-cyanophenyl)-N-(cyclopropylmethyl)-N-[[4-[5-(trifluoromethyl)-1,2,4-oxadiazol-3-yl]phenyl]methyl]-acetamide]",≥ 80
28,"C#CCC(NS(=O)(=O)CC)C(=O)N(Cc1ccc(-c2noc(C(F)(F)F)n2)cc1)CC1CC1 (stereo not drawn) [Compound 1.239, N-(cyclopropylmethyl)-2-(ethylsulfonylamino)-N-[[4-[5-(trifluoromethyl)-1,2,4-oxadiazol-3-yl]phenyl]methyl]-pent-4-ynamide]",≥ 80
29,"O=C(CC1CC1(F)F)N(Cc1ccc(-c2noc(C(F)(F)F)n2)cc1)CC1CC1 (stereo not drawn) [Compound 1.240, N-(cyclopropylmethyl)-2-(2,2-difluorocyclopropyl)-N-[[4-[5-(trifluoromethyl)-1,2,4-oxadiazol-3-yl]phenyl]methyl]-acetamide]",≥ 80
30,"CC=C(C)C(=O)N(OC)C(C)c1ccc(-c2noc(C(F)(F)F)n2)cc1 (stereo not drawn) [Compound 1.255, N-methoxy-2-methyl-N-[1-[4-[5-(trifluoromethyl)-1,2,4-oxadiazol-3-yl]phenyl]ethyl]but-2-enamide]",≥ 80

# Source: US11180462B2, “Microbiocidal oxadiazole derivatives” (SYNGENTA PARTICIPATIONS AG, priority 2015, dated 2021)
